ChEMBL document CHEMBL3886170, “Pyrrolo[3,2-c]pyridine tropomyosin-related kinase inhibitors” (2015)

Each compound was assayed against High affinity nerve growth factor receptor (Homo sapiens, UniProt P04629) (assay: HTRF Assay: Isolated TRK Enzyme assays use the HTRF KinEASE-TK kit (Cisbio Cat#62TK0PEJ) with recombinant His-tagged cytoplasmic domains of each TRK receptor sourced from Invitrogen (see table below). […] A standard curve using the compound of Example 135 disclosed in WO2005/116035 of 150 uM is also prepared on each test plate. High percentage effect (HPE) is defined by 150 uM.).
Sequence of High affinity nerve growth factor receptor (P04629 whole entry, the tested form may be a part): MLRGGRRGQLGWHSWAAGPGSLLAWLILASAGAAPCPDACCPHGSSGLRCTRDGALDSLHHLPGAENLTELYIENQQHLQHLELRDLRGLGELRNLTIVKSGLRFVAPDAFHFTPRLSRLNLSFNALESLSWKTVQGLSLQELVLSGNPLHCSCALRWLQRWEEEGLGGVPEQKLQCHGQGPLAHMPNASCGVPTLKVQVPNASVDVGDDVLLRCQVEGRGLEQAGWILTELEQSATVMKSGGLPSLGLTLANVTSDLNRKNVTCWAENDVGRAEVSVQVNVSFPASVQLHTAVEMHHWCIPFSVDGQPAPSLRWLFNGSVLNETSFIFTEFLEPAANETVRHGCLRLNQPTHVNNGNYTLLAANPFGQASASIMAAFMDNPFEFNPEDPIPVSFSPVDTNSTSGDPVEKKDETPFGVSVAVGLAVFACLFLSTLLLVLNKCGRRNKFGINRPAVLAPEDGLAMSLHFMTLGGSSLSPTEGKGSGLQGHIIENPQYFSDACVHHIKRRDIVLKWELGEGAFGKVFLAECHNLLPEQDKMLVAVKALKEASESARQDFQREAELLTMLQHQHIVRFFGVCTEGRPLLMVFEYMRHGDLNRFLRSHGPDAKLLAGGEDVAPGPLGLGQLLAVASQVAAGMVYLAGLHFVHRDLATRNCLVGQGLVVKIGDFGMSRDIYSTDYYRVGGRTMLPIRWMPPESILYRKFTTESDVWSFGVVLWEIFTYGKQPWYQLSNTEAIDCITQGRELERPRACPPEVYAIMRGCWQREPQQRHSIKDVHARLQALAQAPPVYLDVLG

| IC50 | Structure (SMILES) |
| --- | --- |
| 6.53 nM | CC(C)(CO)n1cc(C(=O)c2cncc(NC(=O)Cc3ccc(Cl)cc3)c2)c2cncc(F)c21 |
| 79.3 nM | CC(C)(CO)n1cc(C(=O)c2cc(NC(=O)Cn3cc(C(F)(F)F)nn3)ccn2)c2cnccc21 |
| 12.4 nM | CC(C)(CO)n1cc(C(=O)c2cncc(NC(=O)Cn3cc(C4CC4)nn3)c2)c2cnccc21 |
| 9.54 nM | CC(C)(CO)n1cc(C(=O)c2cncc(NC(=O)Cc3ccc(C#N)cc3)c2)c2cnccc21 |
